{
  "source": "patent US20220088002A1",
  "about": "“METHOD AGAINST CORONAVIRUS INFECTION WITH QUINOLINE COMPOUND” (CHANG GUNG UNIVERSITY, priority 2020, published 2022)",
  "key": {"HcoV-229E": {"system": "HcoV-229E", "experiment": "Effect against HCoV-229E in Vero E6 cells (MTT cell viability)", "type": "cell-based, human coronavirus 229E", "description": "Vero E6 cells were divided into 6 groups, including one normal control group, one pathological control group, and four experimental groups (i.e., experimental groups 1 to 4). Each group of the Vero E6 cells was incubated in a respective well of a 96-well culture plate containing 100 μL of E2 medium at 2×10^4 cells/well, followed by cultivation in an incubator (37° C., 5% CO2) for 24 hours. Afterwards, the culture medium in each well was removed, and the cells of the experimental groups 1 to 4 were pretreated with 6-bromo-2-[1-(2,5-dimethylphenyl)-5-methyl-1H-pyrazol-4-yl]-quinoline-4-carboxylic acid (i.e., HP520-3) (Cat. No. Molport-020-176-277, Molport Inc.) respectively at concentrations of 39 nM, 78 nM, 156 nM, and 312 nM, followed by adding 150 μL of the HcoV-229E solution prepared in section 2 of General Experimental Materials. […]\nEach group was cultivated in an incubator (37° C., 5% CO2) for 96 hours. […] After cultivation in an incubator (37° C., 5% CO2) for 2 hours, the respective resultant cell culture was added with 150 μL of dimethyl sulfoxide (DMSO), followed by subjecting the mixture thus obtained to determination of absorbance at a wavelength of 590 nm (OD590) by an ELISA reader.\nThe cell viability rate (%) was calculated using the following Equation (I): […]"}, "SARS-CoV-2 [1]": {"system": "SARS-CoV-2", "experiment": "Viral plaque reduction assay", "type": "cell-based", "conditions": "SARS-CoV-2-infected Vero E6 cells (m.o.i. 0.01), 1 μM and 10 μM, 72 hours; versus pathological control group"}, "SARS-CoV-2 [2]": {"system": "SARS-CoV-2", "type": "cell-based", "conditions": "Vero E6 cells pretreated at 0.3125 μM, 1.25 μM, and 5 μM, m.o.i. 0.01; normalized against GAPDH; versus pathological control group"}},
  "data": [
    {"smiles": "Cc1ccc(C)c(-n2ncc(-c3cc(C(=O)O)c4cc(Br)ccc4n3)c2C)c1", "note": "[HP520-3, 6-bromo-2-[1-(2,5-dimethylphenyl)-5-methyl-1H-pyrazol-4-yl]-quinoline-4-carboxylic acid]", "values": [
      {"measurement": "cell viability rate", "setting": "HcoV-229E; HcoV-229E-infected Vero E6 cells pretreated at 39 nM, 78 nM, 156 nM, and 312 nM, versus pathological control group", "result": "significantly higher than that determined in the pathological control group"},
      {"measurement": "EC50", "setting": "HcoV-229E; Human coronavirus 229E, Vero C1008, HcoV-229E-infected Vero E6 cells, 96 hours, MTT, n=3, mean±SD", "result": "0.141 ± 0.0155", "unit": "µM"},
      {"measurement": "number of viral plaques", "setting": "SARS-CoV-2 [1]", "result": "lower than that determined in the pathological control group"},
      {"measurement": "relative RNA expression level of E gene of SARS-CoV-2", "setting": "SARS-CoV-2 [2]", "result": "significantly lower than that of the pathological control group"}
    ]}
  ]
}
